Source: PMC9032718, “Eltrombopag as an Allosteric Inhibitor of the METTL3-14 Complex Affecting the m^6A Methylation of RNA in Acute Myeloid Leukemia Cells” (Pharmaceuticals, 2022)

Legend:
DOT1L = target: T1, DOT1L (Homo sapiens, UniProt Q8TEK3); assay: Methyltransferase selectivity panel (MT HotSpot radioisotope assay), DOT1L; assay type: biochemical
T1 construct: purchased Reaction Biology (Malvern, PA, USA), contract assay
Protocol: (§1) The selectivity profile of eltrombopag was investigated by testing the level of inhibition in a methyltransferase panel. The inhibition of 7 […] methyltransferase was tested at Reaction Biology (Malvern, PA, USA) using a gold standard radioisotope-based MT assay (MT HotSpot^TM) with 10 μM of eltrombopag in duplicate.

METTL3-14 complex = target: T2, METTL3-14 complex (Homo sapiens, UniProt Q86U44); assay: METTL3-14 enzyme-based bioluminescence assay (screening assay); assay type: biochemical; conditions: for inhibition at 60 µM: read-out: % inhibition of METTL3-14 at 60 μM, 60 μM compound; for Km: Michaelis-Menten, Figure S1, read-out: Km of METTL3-14 substrates
T2 construct: genes encoding the full-length and MTase domain of human METTL3; METTL3-14 FL: full length of METTL3-14; 10x His (thrombin-cleavable) (cleaved yes); made in house; host or cells: Trichoplusia ni (Hi5) cells co-infected with two baculoviruses (virus made in Sf9)
T2 sequence (Q86U44 whole entry, the tested form may be a part): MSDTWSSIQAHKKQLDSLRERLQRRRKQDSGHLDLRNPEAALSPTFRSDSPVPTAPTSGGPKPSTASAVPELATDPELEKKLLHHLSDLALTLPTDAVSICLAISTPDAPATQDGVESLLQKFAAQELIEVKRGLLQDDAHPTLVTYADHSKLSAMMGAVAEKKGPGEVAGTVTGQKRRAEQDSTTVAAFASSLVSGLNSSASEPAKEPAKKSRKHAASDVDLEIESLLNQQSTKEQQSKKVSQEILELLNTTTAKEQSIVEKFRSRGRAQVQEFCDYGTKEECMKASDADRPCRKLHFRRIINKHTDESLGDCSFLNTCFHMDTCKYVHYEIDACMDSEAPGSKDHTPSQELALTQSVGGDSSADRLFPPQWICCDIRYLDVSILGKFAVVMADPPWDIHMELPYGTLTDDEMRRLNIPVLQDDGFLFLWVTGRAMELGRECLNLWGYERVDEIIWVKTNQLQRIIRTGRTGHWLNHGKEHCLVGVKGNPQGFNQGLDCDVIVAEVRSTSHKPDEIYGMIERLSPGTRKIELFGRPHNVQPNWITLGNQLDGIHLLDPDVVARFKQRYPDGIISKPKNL
T2 sequence (Q9HCE5 whole entry partner, the tested form may be a part): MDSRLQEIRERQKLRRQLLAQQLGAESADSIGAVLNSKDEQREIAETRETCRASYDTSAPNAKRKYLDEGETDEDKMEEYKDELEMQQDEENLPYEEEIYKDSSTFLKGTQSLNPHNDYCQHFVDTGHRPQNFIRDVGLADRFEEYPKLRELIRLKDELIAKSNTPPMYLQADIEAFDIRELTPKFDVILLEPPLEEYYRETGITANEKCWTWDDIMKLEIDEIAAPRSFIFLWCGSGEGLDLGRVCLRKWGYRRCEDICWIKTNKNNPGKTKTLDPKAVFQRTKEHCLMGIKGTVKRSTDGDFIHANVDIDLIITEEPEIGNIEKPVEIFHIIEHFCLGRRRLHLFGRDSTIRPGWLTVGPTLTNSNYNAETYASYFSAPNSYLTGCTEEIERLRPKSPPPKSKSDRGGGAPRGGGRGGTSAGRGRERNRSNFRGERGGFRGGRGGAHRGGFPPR
Protocol: An enzymatic bioluminescence assay was established to identify the METTL3-14 inhibitor through screening. […] METTL3-14 activity was assessed by measuring the luminescence using a Victor multilabel reader (PerkinElmer, Waltham, MA, USA). The IC50 values were calculated by a nonlinear regression analysis using OriginPro 9.1 software (OriginLab).
To confirm the mechanism of action of eltrombopag in the METTL3-14 complex, 30 nM METTL3-14 and serially diluted eltrombopag were reacted with various concentrations of SAM or RNA substrate and saturating concentrations of the other substrate (3 μM SAM or 2 μM RNA substrate) for 20 min. To evaluate the inhibitory activity in a single form of METTL3 and METTL14, 1 μM of METTL3 and 300 nM of METTL14 were incubated with 1 μM of SAM, 500 nM of RNA substrates, and serially diluted eltrombopag for 5 h. To measure the inhibitory activity in the truncated form of the METTL3-14 complex, 1 μM of the truncated METTL3-14 complex was reacted with 1 μM of SAM, 500 nM of RNA substrates, and serially diluted eltrombopag for 5 h.

MOLM-13 cells [1] = assay: Combinatorial analysis of AML drugs with eltrombopag (EZ-cytox, Synergyfinder); assay type: cell-based; conditions: Homo sapiens, MOLM-13, 72 h, eltrombopag 0 nM; for inhibition at 0.00167 µM: AML drug alone 1.67 nM; for inhibition at 0.005 µM: AML drug alone 5 nM; for inhibition at 0.015 µM: AML drug alone 15 nM; for inhibition at 0.045 µM: AML drug alone 45 nM
Protocol: The MOLM-13 cells were seeded in white 96-well clear bottomed plates with 50 μL of medium (5000 cells/well). The plated cells were treated with serially diluted eltrombopag and current AML drugs, including venetoclax, cytarabine, gilteritinib, and sorafenib, to a final volume of 100 μL and incubated for 72 h at 37 °C. After incubation, 10 μL of EZ-cytox kit reagent from the EZ-cytox cell viability assay kit (DaeiLab) was added to each well and then incubated for 3 h at 37 °C. The absorbance of metabolically active cells was measured at a wavelength of 450 nm using a Victor multilabel reader (PerkinElmer). The synergy scores of each combination were quantified by the HAS model, ZIP model, Loewe additivity model, and Bliss independence models using Synergyfinder software. Positive or negative synergy scores obtained through these models represent synergy and antagonism, respectively.

MOLM-13 cells [2] = assay: Anti-proliferative assay (EZ-cytox), MOLM-13; assay type: cell-based; conditions: Homo sapiens
Protocol: The MOLM-13, MOLM-14, HL60, MV4-11, and THP-1 cells were seeded in white 96-well clear bottomed plates with 100 μL of medium (5000 cells/well). The plated cells were treated with serially diluted compounds and incubated for 72 h at 37 °C. After incubation, 10 μL of EZ-cytox kit reagent from the EZ-cytox cell viability assay kit (DaeiLab, Seoul, Korea) was added to each well and then incubated for 3 h at 37 °C. The absorbance of metabolically active cells was measured at a wavelength of 450 nm using a Victor multilabel reader (PerkinElmer). The GI50 values were calculated by nonlinear regression analysis using OriginPro 9.1 software (OriginLab).

MLL4 complex = target: T3, MLL4 complex (Homo sapiens, UniProt Q9UMN6); assay: Methyltransferase selectivity panel (MT HotSpot radioisotope assay), MLL4 complex; assay type: biochemical; conditions: positive control
T3 construct: purchased Reaction Biology (Malvern, PA, USA), contract assay
Protocol: as §1

PRDM9 = target: T4, PRDM9 (Homo sapiens, UniProt Q9NQV7); assay: Methyltransferase selectivity panel (MT HotSpot radioisotope assay), PRDM9; assay type: biochemical; conditions: positive control
T4 construct: purchased Reaction Biology (Malvern, PA, USA), contract assay
T4 sequence (Q9NQV7 whole entry): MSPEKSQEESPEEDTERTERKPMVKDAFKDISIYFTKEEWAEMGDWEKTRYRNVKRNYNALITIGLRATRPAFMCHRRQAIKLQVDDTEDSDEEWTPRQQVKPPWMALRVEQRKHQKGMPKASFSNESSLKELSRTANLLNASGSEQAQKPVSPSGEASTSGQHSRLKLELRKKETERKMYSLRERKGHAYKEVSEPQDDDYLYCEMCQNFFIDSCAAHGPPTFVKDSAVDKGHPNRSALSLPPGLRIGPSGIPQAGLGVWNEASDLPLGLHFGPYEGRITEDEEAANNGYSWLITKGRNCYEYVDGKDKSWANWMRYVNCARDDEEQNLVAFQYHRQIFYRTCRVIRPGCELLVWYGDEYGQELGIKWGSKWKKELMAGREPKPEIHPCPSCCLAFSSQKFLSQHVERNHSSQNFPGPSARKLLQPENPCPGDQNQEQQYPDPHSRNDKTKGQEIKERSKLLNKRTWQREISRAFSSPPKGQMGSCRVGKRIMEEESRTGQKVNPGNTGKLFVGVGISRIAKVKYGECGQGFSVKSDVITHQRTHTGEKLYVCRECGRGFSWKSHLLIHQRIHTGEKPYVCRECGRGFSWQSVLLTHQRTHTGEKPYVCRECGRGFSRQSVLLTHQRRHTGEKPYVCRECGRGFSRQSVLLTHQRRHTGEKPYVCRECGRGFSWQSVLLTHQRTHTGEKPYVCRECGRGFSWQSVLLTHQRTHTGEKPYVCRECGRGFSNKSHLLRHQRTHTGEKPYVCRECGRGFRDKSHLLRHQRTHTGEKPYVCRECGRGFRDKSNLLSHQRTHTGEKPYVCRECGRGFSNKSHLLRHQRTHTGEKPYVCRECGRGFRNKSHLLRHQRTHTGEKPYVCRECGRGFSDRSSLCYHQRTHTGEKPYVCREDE
Protocol: as §1

SETD2 = target: T5, SETD2 (Homo sapiens, UniProt Q9BYW2); assay: Methyltransferase selectivity panel (MT HotSpot radioisotope assay), SETD2; assay type: biochemical; conditions: positive control
T5 construct: purchased Reaction Biology (Malvern, PA, USA), contract assay
T5 sequence (Q9BYW2 whole entry): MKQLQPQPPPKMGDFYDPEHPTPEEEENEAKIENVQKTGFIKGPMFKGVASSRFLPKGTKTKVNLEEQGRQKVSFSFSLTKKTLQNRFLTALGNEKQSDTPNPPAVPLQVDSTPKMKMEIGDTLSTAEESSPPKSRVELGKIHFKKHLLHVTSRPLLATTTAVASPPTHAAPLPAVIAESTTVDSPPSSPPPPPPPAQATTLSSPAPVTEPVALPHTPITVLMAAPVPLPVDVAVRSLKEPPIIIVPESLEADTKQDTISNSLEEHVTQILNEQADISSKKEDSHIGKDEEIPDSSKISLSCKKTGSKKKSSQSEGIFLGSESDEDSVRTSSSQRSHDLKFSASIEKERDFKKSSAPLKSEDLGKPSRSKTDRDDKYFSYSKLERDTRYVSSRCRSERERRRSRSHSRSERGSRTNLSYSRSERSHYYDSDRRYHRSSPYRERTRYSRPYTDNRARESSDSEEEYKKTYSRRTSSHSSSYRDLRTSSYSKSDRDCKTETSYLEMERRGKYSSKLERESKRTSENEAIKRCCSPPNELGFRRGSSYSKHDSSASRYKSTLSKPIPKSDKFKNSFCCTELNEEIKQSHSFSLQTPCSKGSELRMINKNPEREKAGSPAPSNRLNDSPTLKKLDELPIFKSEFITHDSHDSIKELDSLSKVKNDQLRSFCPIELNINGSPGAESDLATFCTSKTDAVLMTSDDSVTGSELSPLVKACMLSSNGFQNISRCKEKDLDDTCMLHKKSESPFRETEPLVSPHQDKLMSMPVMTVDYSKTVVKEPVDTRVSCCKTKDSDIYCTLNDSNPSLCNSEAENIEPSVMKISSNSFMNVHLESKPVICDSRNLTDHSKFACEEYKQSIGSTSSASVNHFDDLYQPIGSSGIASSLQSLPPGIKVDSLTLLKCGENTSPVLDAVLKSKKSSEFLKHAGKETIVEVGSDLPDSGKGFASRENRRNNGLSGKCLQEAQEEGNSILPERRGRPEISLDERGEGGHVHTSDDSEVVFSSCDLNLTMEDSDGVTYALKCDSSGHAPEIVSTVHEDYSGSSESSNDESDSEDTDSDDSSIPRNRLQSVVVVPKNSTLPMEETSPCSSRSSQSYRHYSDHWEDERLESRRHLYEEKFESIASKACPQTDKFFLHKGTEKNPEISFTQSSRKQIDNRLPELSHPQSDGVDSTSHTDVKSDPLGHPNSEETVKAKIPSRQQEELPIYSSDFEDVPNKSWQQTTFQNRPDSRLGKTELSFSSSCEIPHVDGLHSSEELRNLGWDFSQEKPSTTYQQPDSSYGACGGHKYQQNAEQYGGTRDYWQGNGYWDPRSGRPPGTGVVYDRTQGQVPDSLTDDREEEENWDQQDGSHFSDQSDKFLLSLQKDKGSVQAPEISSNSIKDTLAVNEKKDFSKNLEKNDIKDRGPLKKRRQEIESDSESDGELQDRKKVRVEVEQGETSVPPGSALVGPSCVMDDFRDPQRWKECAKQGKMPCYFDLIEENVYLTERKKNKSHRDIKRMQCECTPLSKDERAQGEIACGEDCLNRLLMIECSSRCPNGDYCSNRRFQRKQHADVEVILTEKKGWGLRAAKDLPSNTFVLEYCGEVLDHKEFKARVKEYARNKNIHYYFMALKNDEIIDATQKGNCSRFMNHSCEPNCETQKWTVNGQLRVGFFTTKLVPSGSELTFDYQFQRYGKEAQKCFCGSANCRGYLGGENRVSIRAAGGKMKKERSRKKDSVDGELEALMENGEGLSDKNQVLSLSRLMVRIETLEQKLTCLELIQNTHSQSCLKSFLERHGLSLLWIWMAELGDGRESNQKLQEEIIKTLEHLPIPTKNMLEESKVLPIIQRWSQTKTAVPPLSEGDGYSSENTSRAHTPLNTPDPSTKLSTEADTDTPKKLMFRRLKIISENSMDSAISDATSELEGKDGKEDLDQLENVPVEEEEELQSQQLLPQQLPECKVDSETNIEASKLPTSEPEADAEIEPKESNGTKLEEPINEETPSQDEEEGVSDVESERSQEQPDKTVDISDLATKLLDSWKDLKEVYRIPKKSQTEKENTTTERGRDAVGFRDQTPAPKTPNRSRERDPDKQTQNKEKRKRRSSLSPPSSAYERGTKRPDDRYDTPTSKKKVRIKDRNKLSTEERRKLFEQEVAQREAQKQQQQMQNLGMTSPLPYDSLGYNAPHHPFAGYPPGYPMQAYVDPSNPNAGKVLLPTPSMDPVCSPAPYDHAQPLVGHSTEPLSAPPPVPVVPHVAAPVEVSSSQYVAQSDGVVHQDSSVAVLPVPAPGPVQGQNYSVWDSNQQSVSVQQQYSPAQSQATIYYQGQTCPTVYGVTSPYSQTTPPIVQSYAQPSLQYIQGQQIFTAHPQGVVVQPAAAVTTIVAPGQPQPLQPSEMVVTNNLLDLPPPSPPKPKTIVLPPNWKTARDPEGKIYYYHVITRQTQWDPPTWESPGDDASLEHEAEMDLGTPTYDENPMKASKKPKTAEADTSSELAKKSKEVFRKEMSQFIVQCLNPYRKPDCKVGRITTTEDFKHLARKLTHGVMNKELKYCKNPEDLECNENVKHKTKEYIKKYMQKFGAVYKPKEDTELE
Protocol: as §1

SMYD3 = target: T6, SMYD3 (Homo sapiens, UniProt Q9H7B4); assay: Methyltransferase selectivity panel (MT HotSpot radioisotope assay), SMYD3; assay type: biochemical
T6 construct: purchased Reaction Biology (Malvern, PA, USA), contract assay
T6 sequence (Q9H7B4 1-428): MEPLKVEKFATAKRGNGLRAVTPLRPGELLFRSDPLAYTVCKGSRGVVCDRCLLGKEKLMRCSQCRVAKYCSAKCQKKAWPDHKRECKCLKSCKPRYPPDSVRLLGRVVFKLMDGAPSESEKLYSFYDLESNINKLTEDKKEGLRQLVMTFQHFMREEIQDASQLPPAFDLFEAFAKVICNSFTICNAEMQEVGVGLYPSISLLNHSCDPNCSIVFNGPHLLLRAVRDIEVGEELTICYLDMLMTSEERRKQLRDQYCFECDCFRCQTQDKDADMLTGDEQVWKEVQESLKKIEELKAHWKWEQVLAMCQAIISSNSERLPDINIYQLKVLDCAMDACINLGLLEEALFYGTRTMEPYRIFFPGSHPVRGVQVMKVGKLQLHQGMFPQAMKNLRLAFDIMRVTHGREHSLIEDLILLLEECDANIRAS
Protocol: as §1

[3] = tested on: m^6A/A on poly-A+-enriched mRNA of MOLM-13 cells; design: method as in PMID 34237194; conditions: cited from earlier work
[4] = tested on: m^6A methylation of MOLM-13 transcriptome; design: method as in PMID 33902106; conditions: cited from earlier work

In the case of `CN1C(=O)[C@@]23C[C@]4([C@]56C[C@@]78SS[C@@](CO)(C(=O)N7[C@H]5Nc5ccccc56)N(C)C8=O)c5ccccc5N[C@@H]4N2C(=O)[C@]1(CO)SS3` [Chaetocin], the IC50 (DOT1L) is reported as 0.217 µM.
With `CC1=NN(c2ccc(C)c(C)c2)C(=O)/C1=N\Nc1cccc(-c2ccccc2)c1O` [Compound 14a] the inhibition at 60 µM (METTL3-14 complex) was 23.3%.
`COC(=O)c1cccc(-c2cccc(N/N=C3\C(=O)N(c4ccc(C)c(C)c4)N=C3C)c2O)c1` [Compound 14b] gave an inhibition at 60 µM (METTL3-14 complex) of 23.7%.
For `CC1=NN(c2ccc(C)c(C)c2)C(=O)/C1=N\Nc1cccc(-c2cccc(C(=O)O)c2)c1` [Compound 14d], the IC50 (METTL3-14 complex; full length METTL3-14 30 nM, SAM 300 nM, RNA substrate 300 nM, 1 h, read-out: IC50, METTL3-14 inhibition, bioluminescence enzyme based assay) was 15.3 µM and the “fold decrease of METTL3-14 inhibitory activity versus eltrombopag” value (METTL3-14 complex; relative to eltrombopag) was 4 fold.
`Nc1ccn([C@@H]2O[C@H](CO)[C@@H](O)[C@@H]2O)c(=O)n1` [Cytarabine] gave an inhibition at 0.00167 µM (MOLM-13 cells [1]) of 2.2 ± 3.1%, an inhibition at 0.005 µM (MOLM-13 cells [1]) of 20.7 ± 4.33% and an inhibition at 0.015 µM (MOLM-13 cells [1]) of 48.3 ± 1.93%. It also gave an inhibition at 0.045 µM (MOLM-13 cells [1]) of 75.7 ± 1.35%.
For `CCc1nc(C(N)=O)c(Nc2ccc(N3CCC(N4CCN(C)CC4)CC3)c(OC)c2)nc1NC1CCOCC1` [Gilteritinib], the GI50 (MOLM-13 cells [2]; MOLM-13, 72 h, positive control, Figure S3) was 0.0166 µM.
`Nc1ncnc2c1ncn2[C@@H]1O[C@H](CSCC[C@H](N)C(=O)O)[C@@H](O)[C@H]1O` [SAH, S-(5′-adenosyl)-L-homocysteine] gave an IC50 (MLL4 complex) of 5.09 µM, an IC50 (PRDM9) of 4.16 µM and an IC50 (SETD2) of 10.8 µM. The IC50 (SMYD3) was 35.3 µM.
Compound `C[S+](CC[C@H](N)C(=O)O)C[C@H]1O[C@@H](n2cnc3c(N)ncnc32)[C@H](O)[C@@H]1O` (stereo partly drawn) [SAM, S-(5′-adenosyl)-L-methionine] has a Km (METTL3-14 complex) of 0.0986 µM.
For `Nc1ncnc2c1ncn2[C@@H]1O[C@H](C[C@@H](N)CC[C@H](N)C(=O)O)[C@@H](O)[C@H]1O` [Sinefungin, sinefungin], the GI50 (MOLM-13 cells [2]; MOLM-13, 72 h) was 24.8 ± 1.2 µM.
For `CC1(C)CCN(Cc2ccc(C(=O)NC[C@]3(O)CCCN(c4cc(NCc5ccccc5)ncn4)C3)c(O)c2)CC1` [UZH1a], the “maximum m^6A inhibition, previously reported” value [3] is given as 60–70%.
`CC1(C)CCC(CN2CCN(c3ccc(C(=O)NS(=O)(=O)c4ccc(NCC5CCOCC5)c([N+](=O)[O-])c4)c(Oc4cnc5[nH]ccc5c4)c3)CC2)=C(c2ccc(Cl)cc2)C1` [Venetoclax] showed an inhibition at 0.00167 µM (MOLM-13 cells [1]) of 12.8 ± 3.69%, an inhibition at 0.005 µM (MOLM-13 cells [1]) of 29.2 ± 0.39% and an inhibition at 0.015 µM (MOLM-13 cells [1]) of 54.5 ± 3.76%. It also gave an inhibition at 0.045 µM (MOLM-13 cells [1]) of 77 ± 0.92%.
In the case of “RNA: RNA substrate 5′-ACGAGUCCUGGACUGAAACGGACUUGU-3′ (RNA, backbone not given here)”, the Km (METTL3-14 complex) is reported as 0.0705 µM.
For STM2457, the “share of hypermethylation, previously reported” value [4] is listed as “about 30%”.
